Data reported in ChEMBL document CHEMBL5584338, “Design, Synthesis, and Biological Evaluation of 5-Amino-4-fluoro-1H-benzo[d]imidazole-6-carboxamide Derivatives as Novel and Potential MEK/RAF Complex Inhibitors Based on the "Clamp" Strategy” (J Med Chem, 2024).
Activity calls are given as the source filed them. No cut-off for these calls is given here.

Key:
[1] = molecular target: T1, Dual specificity mitogen-activated protein kinase kinase 1 (Homo sapiens, UniProt Q02750); experiment: Inhibition of MEK1 (unknown origin)
HCT-116 [2] = experiment: Inhibition of colony formation in human HCT-116 cells incubated for 10 days by crystal violet staining based analysis; type: functional, cell-based; details: dose 0.1-10 µM, time 10.0 day
MIA PaCa-2 [3] = experiment: Antiproliferative activity against human MIA PaCa-2 cells harboring KRAS G12C mutant at 0.1 uM incubated for 72 hrs by CCK8 assay relative to control; type: functional
MIA PaCa-2 [4] = experiment: Antiproliferative activity against human MIA PaCa-2 cells harboring KRAS G12C mutant incubated for 72 hrs by CCK8 assay; type: functional, cell-based; details: MIA PaCa-2, 72 h
MIA PaCa-2 [5] = experiment: Induction of apoptosis in human MIA PaCa-2 cells assessed as early apoptotic cells at 0.25 uM incubated for 24 hrs by Annexin V-FITC/PI staining based flow cytometry (reference value: 5.02 %); type: functional
[6] = molecular target: T2, Dual specificity mitogen-activated protein kinase kinase; MEK1/2 (Homo sapiens) (UniProt P36507+Q02750); experiment: Inhibition of MEK phosphorylation in human MIA PaCa-2 cells upto 1 uM incubated for 4 hrs by Western blot analysis; type: cell-based
[7] = molecular target: T2, Dual specificity mitogen-activated protein kinase kinase; MEK1/2 (Homo sapiens); experiment: Inhibition of MEK phosphorylation in human MIA PaCa-2 cells at lower concentration incubated for at least 48 hrs by Western blot analysis; type: cell-based
[8] = system: Mitogen-activated protein kinase 1/3 (ERK1/2) (Homo sapiens); experiment: Inhibition of ERK phosphorylation in human MIA PaCa-2 cells upto 1 uM incubated for 4 hrs by Western blot analysis
MIA PaCa-2 [9] = experiment: Inhibition of colony formation in human MIA PaCa-2 cells incubated for 10 days by crystal violet staining based analysis; type: functional, cell-based; details: dose 0.01-1 µM, time 10.0 day
[10] = Antiproliferative activity against rat H9c2 cells incubated for 72 hrs by CCK8 assay; type: toxicity, cell-based
MIA PaCa-2 [11] = experiment: Induction of cell cycle arrest at G0/G1 phase in human MIA PaCa-2 cells at 0.01 to 0.25 uM incubated for 24 hrs by PI/RNase staining based flow cytometry (reference value: 47.37 %); type: functional; details: dose 0.01-0.25 µM
[12] = system: Mitogen-activated protein kinase 1/3 (ERK1/2) (Homo sapiens); experiment: Inhibition of ERK phosphorylation in human MIA PaCa-2 cells at lower concentration incubated for at least 48 hrs by Western blot analysis
HeLa = experiment: Antiproliferative activity against human HeLa cells incubated for 72 hrs by CCK8 assay; type: functional, cell-based
[13] = Cmax in Sprague-Dawley rat at 5 mg/kg, iv; type: ADME, organism-based; details: in vivo
Homo sapiens = species: Homo sapiens; experiment: Inhibition of BRAF […] mutant (unknown origin) at 1 uM by kinase profiling analysis
MIA PaCa-2 [14] = experiment: Induction of apoptosis in human MIA PaCa-2 cells assessed as late apoptotic cells at 1 uM incubated for 24 hrs by Annexin V-FITC/PI staining based flow cytometry (reference value: 6.90 %); type: functional
MIA PaCa-2 [15] = experiment: Induction of apoptosis in human MIA PaCa-2 cells assessed as early apoptotic cells at 0.05 uM incubated for 24 hrs by Annexin V-FITC/PI staining based flow cytometry (reference value: 5.02 %); type: functional
[16] = molecular target: Dual specificity mitogen-activated protein kinase kinase 2 (Homo sapiens) (UniProt P36507); experiment: Binding affinity to MEK2 (unknown origin) at 1 uM by kinase profiling analysis
[17] = Toxicity in NU/NU mouse xenografted with human HCT-116 cells harboring KRAS G13D mutant assessed as animal death at 15 to 30 mg/kg, iv administered 5 times a week for 16 days; type: organism-based; details: in vivo, 384 h, dose 15-30 mg/kg, time 16 day
MIA PaCa-2 [18] = experiment: Stabilization of MEK1/2/BRAF complex in human MIA PaCa-2 cells at 100 nM incubated for 4 hrs by co-immunoprecipitation method; type: cell-based
MIA PaCa-2 [19] = experiment: Induction of apoptosis in human MIA PaCa-2 cells assessed as early apoptotic cells at 1 uM incubated for 24 hrs by Annexin V-FITC/PI staining based flow cytometry (reference value: 5.02 %); type: functional
HCT-116 [20] = experiment: Antiproliferative activity against human HCT-116 cells harboring KRAS G13D mutant incubated for 72 hrs by CCK8 assay; type: functional, cell-based; details: HCT-116, 72 h
HCT-116 [21] = experiment: Antiproliferative activity against human HCT-116 cells harboring KRAS G13D mutant at 1 uM incubated for 72 hrs by CCK8 assay relative to control; type: functional
[22] = molecular target: T3, Serine/threonine-protein kinase B-raf (Homo sapiens, UniProt P15056); experiment: Inhibition of BRAF (unknown origin) at 1 uM by kinase profiling analysis
[23] = Half life in Sprague-Dawley rat at 5 mg/kg, iv; type: ADME, organism-based; details: in vivo
[24] = Toxicity in NU/NU mouse xenografted with human HCT-116 cells harboring KRAS G13D mutant assessed as body weight change at 15 to 30 mg/kg, iv administered 5 times a week for 16 days; type: organism-based; details: in vivo, 384 h, dose 15-30 mg/kg, time 16 day
MIA PaCa-2 [25] = experiment: Induction of apoptosis in human MIA PaCa-2 cells assessed as late apoptotic cells at 0.05 uM incubated for 24 hrs by Annexin V-FITC/PI staining based flow cytometry (reference value: 6.90 %); type: functional
[26] = molecular target: T3, Serine/threonine-protein kinase B-raf; experiment: Inhibition of BRAF (unknown origin) assessed as remaining activity at 0.1 uM relative to control
HCT-116 [27] = experiment: Induction of cell cycle arrest at G0/G1 phase in human HCT-116 cells at 0.1 to 2.5 uM incubated for 24 hrs by PI/RNase staining based flow cytometry (reference value: 61.35 %); type: functional; details: dose 0.1-2.5 µM
[28] = Toxicity in BALB/c mouse xenografted with […] harboring KRAS G12D mutant assessed as body weight change at 5 to 30 mg/kg, iv administered 5 times a week for 12 days; type: organism-based, C-26; details: in vivo, 288 h, dose 5-30 mg/kg, time 12 day
[29] = Stability in human liver microsomes assessed as half life at 200 uM preincubated for 5 mins followed by NADPH addition measured upto 60 mins by LC-MS/MS analysis; type: ADME, Microsome; details: time 65 min
[30] = molecular target: T1, Dual specificity mitogen-activated protein kinase kinase 1; experiment: Inhibition of MEK1 (unknown origin) at 1 uM by kinase profiling analysis
[31] = molecular target: T1, Dual specificity mitogen-activated protein kinase kinase 1; experiment: Inhibition of MEK1 (unknown origin) assessed as remaining activity at 0.1 uM relative to control
MIA PaCa-2 [32] = experiment: Induction of apoptosis in human MIA PaCa-2 cells assessed as increase in cleaved caspase-3 level upto 1 uM incubated for 24 hrs by Western blot analysis; type: functional, cell-based
C-26 = experiment: Antitumor activity against mouse C26 cells harboring KRAS G12D mutant xenografted in BALB/c mouse assessed as tumor growth inhibition administered intravenously 5 times a week for 12 days; type: functional, cell-based; details: dose 5-30 mg/kg, route iv, time 12.0 day
[33] = Toxicity in BALB/c mouse xenografted with […] harboring KRAS G12D mutant assessed as animal death at 5 to 30 mg/kg, iv administered 5 times a week for 12 days; type: organism-based, C-26; details: in vivo, 288 h, dose 5-30 mg/kg, time 12 day
[34] = molecular target: RAF proto-oncogene serine/threonine-protein kinase (Homo sapiens) (UniProt P04049); experiment: Binding affinity to CRAF (unknown origin) at 1 uM by kinase profiling analysis
Chain of RAF proto-oncogene serine/threonine-protein kinase (Homo sapiens) (P04049 whole entry): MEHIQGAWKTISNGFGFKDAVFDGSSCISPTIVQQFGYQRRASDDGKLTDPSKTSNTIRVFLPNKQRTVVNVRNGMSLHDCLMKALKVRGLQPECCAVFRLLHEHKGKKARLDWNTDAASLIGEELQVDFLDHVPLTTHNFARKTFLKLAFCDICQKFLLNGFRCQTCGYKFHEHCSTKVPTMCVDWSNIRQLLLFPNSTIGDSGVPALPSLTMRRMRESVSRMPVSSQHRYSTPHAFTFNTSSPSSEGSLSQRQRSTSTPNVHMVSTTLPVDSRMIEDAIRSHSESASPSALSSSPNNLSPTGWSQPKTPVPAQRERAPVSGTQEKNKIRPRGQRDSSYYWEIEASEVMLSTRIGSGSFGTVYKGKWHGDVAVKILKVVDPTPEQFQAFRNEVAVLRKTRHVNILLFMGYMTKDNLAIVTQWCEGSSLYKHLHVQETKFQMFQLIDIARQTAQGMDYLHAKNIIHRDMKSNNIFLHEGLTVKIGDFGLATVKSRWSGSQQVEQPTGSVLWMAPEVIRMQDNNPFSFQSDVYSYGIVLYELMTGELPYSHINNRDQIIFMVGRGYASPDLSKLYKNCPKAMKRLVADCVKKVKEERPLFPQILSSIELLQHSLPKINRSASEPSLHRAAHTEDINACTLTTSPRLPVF

T1 sequence (Q02750 whole entry): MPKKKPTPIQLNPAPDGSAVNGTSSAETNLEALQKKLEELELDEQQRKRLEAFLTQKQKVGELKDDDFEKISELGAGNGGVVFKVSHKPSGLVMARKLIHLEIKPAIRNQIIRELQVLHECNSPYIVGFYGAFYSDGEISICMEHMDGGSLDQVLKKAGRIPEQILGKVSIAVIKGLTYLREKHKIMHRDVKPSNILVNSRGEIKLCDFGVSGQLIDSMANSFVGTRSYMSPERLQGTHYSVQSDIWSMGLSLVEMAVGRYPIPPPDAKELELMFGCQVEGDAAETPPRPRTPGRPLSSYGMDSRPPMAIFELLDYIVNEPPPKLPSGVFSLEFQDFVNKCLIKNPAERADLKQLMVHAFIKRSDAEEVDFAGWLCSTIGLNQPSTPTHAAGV
T3 sequence (P15056 whole entry): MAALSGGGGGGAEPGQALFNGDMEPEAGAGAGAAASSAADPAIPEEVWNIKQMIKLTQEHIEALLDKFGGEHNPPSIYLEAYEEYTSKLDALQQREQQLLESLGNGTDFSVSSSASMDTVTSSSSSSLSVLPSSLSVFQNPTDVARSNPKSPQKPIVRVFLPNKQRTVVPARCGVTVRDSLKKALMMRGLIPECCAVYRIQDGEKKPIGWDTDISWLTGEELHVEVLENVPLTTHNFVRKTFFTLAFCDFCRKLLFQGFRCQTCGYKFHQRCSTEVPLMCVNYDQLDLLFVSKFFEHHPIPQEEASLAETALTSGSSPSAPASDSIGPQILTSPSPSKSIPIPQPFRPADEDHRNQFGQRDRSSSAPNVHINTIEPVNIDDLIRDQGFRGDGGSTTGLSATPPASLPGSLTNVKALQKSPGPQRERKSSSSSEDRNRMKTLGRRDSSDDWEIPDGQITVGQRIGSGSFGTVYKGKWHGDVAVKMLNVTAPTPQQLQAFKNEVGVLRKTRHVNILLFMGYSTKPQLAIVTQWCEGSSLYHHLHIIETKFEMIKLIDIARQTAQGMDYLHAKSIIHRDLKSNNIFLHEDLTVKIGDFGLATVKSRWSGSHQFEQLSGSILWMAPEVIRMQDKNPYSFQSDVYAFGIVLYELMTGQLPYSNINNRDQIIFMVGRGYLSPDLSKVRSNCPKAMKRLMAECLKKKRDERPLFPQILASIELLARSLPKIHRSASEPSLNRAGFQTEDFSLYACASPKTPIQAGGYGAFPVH
T2 sequence (P36507 whole entry, looked up): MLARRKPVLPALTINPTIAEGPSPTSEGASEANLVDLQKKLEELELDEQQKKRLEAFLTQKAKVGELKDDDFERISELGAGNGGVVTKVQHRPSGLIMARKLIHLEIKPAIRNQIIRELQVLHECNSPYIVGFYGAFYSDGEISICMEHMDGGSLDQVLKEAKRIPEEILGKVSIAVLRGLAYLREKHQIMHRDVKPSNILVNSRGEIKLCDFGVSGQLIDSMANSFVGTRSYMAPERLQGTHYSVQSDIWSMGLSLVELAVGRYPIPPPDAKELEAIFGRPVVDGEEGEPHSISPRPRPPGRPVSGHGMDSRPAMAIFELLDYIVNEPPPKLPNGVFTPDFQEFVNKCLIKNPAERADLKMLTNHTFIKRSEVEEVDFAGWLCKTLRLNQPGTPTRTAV
T2 sequence (Q02750 whole entry, looked up): as the sequence (Q02750 whole entry) above
Chain of Dual specificity mitogen-activated protein kinase kinase 2 (Homo sapiens) (P36507 whole entry): as the sequence (P36507 whole entry, looked up) above

CCNS(=O)(=O)Nc1cccc(Cn2cnc3c(F)c(Nc4ccc(C5CC5)cc4F)c(C(=O)NOCCO)cc32)c1F
IC50 [1]: 28 nM
inhibition (HCT-116 [2]): Dose-Dependent Effect
inhibition at 0.1 µM (MIA PaCa-2 [3]): 85%
IC50 (MIA PaCa-2 [4]): 11 nM
Activity (MIA PaCa-2 [5]): 30.9%
inhibition [6]: Active
inhibition [7]: Active
inhibition [8]: Active
inhibition (MIA PaCa-2 [9]): Dose-Dependent Effect
IC50 at 72 h [10]: > 50000 nM
Activity (MIA PaCa-2 [11]): 87.94%
inhibition [12]: Active
IC50 (HeLa): > 10000 nM
Cmax [13]: 603 ng/mL
inhibition (Homo sapiens): Active
Activity (MIA PaCa-2 [14]): 8.21%
Activity (MIA PaCa-2 [15]): 10.7%
Activity [16]: Active
Activity [17]: Non-Toxic
Activity (MIA PaCa-2 [18]): Active
Activity (MIA PaCa-2 [19]): 32.3%
IC50 (HCT-116 [20]): 79 nM
inhibition at 1 µM (HCT-116 [21]): 61.5%
inhibition [22]: Active
half-life [23]: 55.2 min
Activity [24]: Non-Toxic
Activity (MIA PaCa-2 [25]): 6.59%
Activity [26]: -3%
Activity (HCT-116 [27]): 79.63%
Activity [28]: Non-Toxic
half-life at 200 µM [29]: 58.7 min
inhibition [30]: Active
Activity [31]: 25%
Activity (MIA PaCa-2 [32]): Active
inhibition (C-26): Active
Activity [33]: Non-Toxic
Activity [34]: Active
